Experimental data published in US9096532B2, “Pyrazole inhibitors of COX-2 and sEH” (The Regents of the University of California, priority 2010, dated 2015).
Entries after “also recorded” stand apart in the source; their conditions may differ.

Experiments:
[1] = tested on: VEGF-induced angiogenesis; assay: In vivo angiogenesis assay (Matrigel plug); settings: C57BL/6 mice, n=6 per group, FIG. 15
Protocol: Male C57BL/6 mice were purchased from Charles River Lab. After acclimation for 1 wk in a standard animal facility, the animals were lightly anesthesized using 1-4% isoflurane in oxygen (2 L/min) and placed on a heated stage to maintain body temperature at 37° C. Growth-factor reduced Matrigel (0.5 mL, BD Biosciences, San Jose, Calif.) mixed with 100 ng mouse VEGF 164 (R&D Systems, Minneapolis, Minn.), 20 U heparin (APP Pharmaceuticals, Schaumburg, Ill.), with or without test compounds were subcutaneously injected into the mice at the abdominal area. Each mouse was injected with two gels (with/without test compounds) symmetrically in the abdomen. After 4-7 days, the animals were euthanized and dissected to recover the implanted Matrigel plugs. Hemoglobin contents inside the Matrigel implants were analyzed by Drabkin's reagent (Sigma-Aldrich, St. Louis, Mont.).

[2] = Pharmacokinetics in mice by oral cassette dosing; format: in vivo; settings: oral cassette dosing at 5 mg/kg, blood
Protocol: All the animal experiments were performed according to protocols approved by the Animal Use and Care Committee of University of California, Davis. […] Each cassette was orally administered to 4 mice at a dose of 5 mg/kg in 120-150 μl of vehicle depending on animal weight. […] The instrument was equipped with a linear ion trap and a Turbo V ion source and was operated in negative ion MRM mode. […] This was maintained for 3 min, then the gradient was returned to 30% solvent B in 2 min. The flow rate was 0.4 mL/min. The injection volume was 10 μL and the samples were kept at 4° C. in the auto sampler.

[3] = tested on: LPS induced allodynia; assay: Von Frey mechanical nociceptive assay, LPS induced model of inflammatory pain; format: in vivo; settings: male SD rats, 10 mg/kg s.c. 60 minutes before intraplantar LPS, tested until 6 hours post LPS
Protocol: In vivo anti-allodynic effects of the COX-2/sEH dual inhibitors provided herein was assayed. An LPS induced model of inflammatory pain was used to compare the pain reducing activity of the COX-2/sEH dual inhibitors to combination and individual therapies.
Rats weighing approximately 250-300 grams are brought to the testing apparatus and allowed to acclimate for 30 minutes. After 30 minutes the rats are tested with a von Frey aesthesiometer for their non-treated baseline withdrawal latency to mechanical stimulation. The von Frey apparatus is a raised metal mesh platform that has clear acrylic chambers to enclose rats but allow them to move freely. A rigid tip von Frey probe is used to probe the plantar surface of the rat hind paw though the mesh floor to elicit a withdrawal response. The measures recorded are grams of force applied to the hind paw required to elicit a withdrawal. The pretreatment baseline score is considered the pain-free baseline (BL) and is assigned 100% for further response calculations. […] The measures are then calculated as a percent of the pretreatment baseline score.

[4] = tested on: HUVEC cells; assay: HUVEC endothelial tube formation assay; format: cell-based, human; settings: treated for 4-6 hours, FIG. 12
Protocol: Endothelial tube formation assay was carried out using a slightly modified method described by Arnaoutova and Kleinman (Nat. Protocols 5, 628-635). Briefly, 96-well plates were coated with growth-factor reduced Matrigel (50 μL per well, BD Biosciences, San Jose, Calif.) at 37° C. for 30 min. HUVEC cells were seeded into the 96-well plates at 2×10^4 cells per well in 100 μL serum-free F-12K medium with or without test compounds and incubated for 6 h 37° C. in the incubator. Microscope image was recorded and analyzed by NIH Image J software.

[5] = biological target: T1, 5-LOX (Homo sapiens, UniProt P09917); assay: Potency against 5-LOX; format: biochemical; settings: compared with celecoxib
T1 sequence (P09917 1-674): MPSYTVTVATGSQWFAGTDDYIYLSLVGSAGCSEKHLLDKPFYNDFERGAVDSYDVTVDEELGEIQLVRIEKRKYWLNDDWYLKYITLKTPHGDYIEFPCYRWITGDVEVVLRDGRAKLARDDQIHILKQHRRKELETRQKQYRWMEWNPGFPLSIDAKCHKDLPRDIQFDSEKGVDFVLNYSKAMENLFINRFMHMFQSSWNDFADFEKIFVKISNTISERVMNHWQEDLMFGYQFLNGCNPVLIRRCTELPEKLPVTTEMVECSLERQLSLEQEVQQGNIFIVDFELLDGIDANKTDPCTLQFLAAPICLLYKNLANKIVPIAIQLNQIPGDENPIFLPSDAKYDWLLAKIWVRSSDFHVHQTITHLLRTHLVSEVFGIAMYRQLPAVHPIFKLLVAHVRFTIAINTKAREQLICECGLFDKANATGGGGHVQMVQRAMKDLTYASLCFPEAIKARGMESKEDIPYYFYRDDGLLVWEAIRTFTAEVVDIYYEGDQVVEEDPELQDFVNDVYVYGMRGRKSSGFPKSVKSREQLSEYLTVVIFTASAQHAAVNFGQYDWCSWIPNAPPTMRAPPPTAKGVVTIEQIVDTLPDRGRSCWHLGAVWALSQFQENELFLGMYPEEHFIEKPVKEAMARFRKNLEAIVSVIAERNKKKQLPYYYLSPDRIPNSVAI

[6] = tested on: mouse aortic ring vessel sprouting; assay: Mouse aortic ring assay; format: cell-based; settings: FIG. 13
Protocol: Mouse aorta ring assay was carried out using a slightly modified method described by Bellacen and Lewis (J Vis Exp, e1564). The 48-well plates were coated with 50 μL per well growth-factor reduced Matrigel at 37° C. for 30 min. The aorta of C57BL/6 mice was harvested, washed with cold serum-free F-12K medium 5-6 times, and cut to ˜1 mm length pieces. The aorta ring was put in the center area of Matrigel-coated 48-well plates, then another 100 μL Matrigel was added into each well and incubated at 37° C. for another 30 min. Complete endothelial EGM-2 culture medium (500 μL per well) with or without test compounds was added into each well, incubated in 37° C. incubators for 6-12 days, microscope image was recorded and analyzed by NIH Image J software.

[7] = tested on: cancer cells (H-1, PC-3, A375, Met-1); assay: Cancer cell proliferation assay (MTT); format: cell-based; settings: times higher than in endothelial cells, FIG. 14
Protocol: Cells (HUVEC, H-1, PC-3, A375, Met-1) were seeded into 96-well plates at 1.0-1.5×10^3 cells per well in 100 μL complete medium. After 24 h, the medium was replaced with fresh complete medium containing test compounds and the cells were incubated for another 72 hours. Cell viability was assessed by MTT assay (Sigma-Aldrich).

In the case of `NS(=O)(=O)c1ccc(-n2nc(CCCNC(=O)Nc3ccc(C(F)(F)F)cc3)cc2-c2ccccc2)cc1` [Compound 21i, 4-(5-Phenyl-3-{3-[3-(4-trifluoromethyl-phenyl)-ureido]-propyl}-pyrazol-1-yl)-benzenesulfonamide], the “VEGF-induced angiogenesis, hemoglobin content inside the Matrigel, in words” value [1] is reported as “inhibits VEGF-induced angiogenesis”, the AUC [2] is reported as 980 nM·h and the Cmax [2] is reported as 260 nM. The Tmax [2] was 48 min, the t1/2 [2] was 2.6 h and the “Anti-allodynic effect, von Frey paw withdrawal, in words” value [3] was “better in vivo efficacy in a pain model in rats compared to celecoxib and t-AUCB combination therapy; also recorded: superior effect compared to the combination therapies; also recorded: superior anti-allodynic activity; also recorded: more efficient than the combination of celecoxib with t-AUCB”. The “HUVEC tube formation, in words” value [4] was “inhibits endothelial proliferation assay of HUVEC cells”, the “Potency against 5-LOX, in words” value [5] was “comparable with celecoxib” and the “Vessel sprouting in mouse aortic ring assay, in words” value [6] was “inhibited vessel sprouting in mouse aortic ring assay in a dose-dependent manner”. The “IC50 in cancer cells relative to endothelial cells” value [7] was 5-10 times.
